Source: patent US10253002B2, “Compounds and methods of treating infections” (Neoculi Pty Ltd., priority 2013, dated 2019)
Several values for one entry are separate records, joined by “and”; a condition that tells them apart may be missing. Identical values can stand only once.

tested on: Gram-negative bacteria (E. coli and Pseudomonas aeruginosa); test: Testing of NCL812 analogues, Gram-negative antibacterial activity; format: cell-based; conditions: MIC testing
Method: Minimum inhibitory concentrations (μg/ml) were determined using the broth microdilution method recommended by the Clinical and Laboratory Standards Institute (CLSI). MIC breakpoints were determined by visual assessment and then confirmed using an ELISA plate reader, measuring absorbance levels at 600 nm. Bacterial growth (turbidity) in the wells with antimicrobial was compared with the amount of growth (turbidity) in the growth-control well (containing no antimicrobial). All isolates were tested in duplicate, if there was a difference of greater than one two-fold dilution in the results, the test was repeated a third time. The purity of the isolates was closely monitored during testing by subculturing the prepared bacterial inoculum onto SBA (sheep blood agar). The MICs of the control strains for the antimicrobial ampicillin were determined for each testing run as an internal quality control. The MIC50, […] and MIC range (minimum and maximum) were calculated for each of the bacterial groups.
MICs were determined against two MRSA strains, two VRE strains and one strain each of E. coli and Pseudomonas aeruginosa.

SMILES	level of Gram-negative antibacterial activity among analogues
Cl.N=C(N)N/N=C/c1ccc(Cl)cc1 [NCL030]	highest level of Gram-negative antibacterial activity
Cl.N=C(N)N/N=C/c1ccc(C(F)(F)F)cc1 [NCL041]	highest level of Gram-negative antibacterial activity
Cl.N=C(N)N/N=C/c1cccc(C(F)(F)F)c1 [NCL043]	highest level of Gram-negative antibacterial activity
Cc1ccc(/C=N/NC(=N)N)cc1.Cl [NCL044]	highest level of Gram-negative antibacterial activity
Cl.N=C(N)N/N=C/c1cccc(Cl)c1 [NCL052]	highest level of Gram-negative antibacterial activity
Cl.N=C(N)NN=Cc1ccc(F)cc1 [NCL053]	highest level of Gram-negative antibacterial activity
Cl.N=C(N/N=C/c1cc(O)c(O)c(O)c1)N/N=C/c1cc(O)c(O)c(O)c1 [NCL097, 2,2′-bis[(3,4,5-trihydroxyphenyl)methylene]carbonimidic Dihydrazide Hydrochloride]	highest level of Gram-negative antibacterial activity

tested on: S. aureus ATCC29213; test: Broth microdilution MIC, Example 7 (NCL analogues), Table 42; format: cell-based, Staphylococcus aureus; conditions: S. aureus ATCC29213, 24 hours

SMILES	MIC (μg/ml) at 24 hours S. aureus ATCC29213 [µg/mL]
CC(Nc1cc(Cl)nc(N)n1)c1ccccc1 (stereo not shown) [NCL 182]	>64
CC(Nc1cc(NC(C)c2ccccc2)ncn1)c1ccccc1 (stereo not shown) [NCL 183]	>64

tested on: VRE; test: Broth microdilution MIC, Example 7 (NCL812 and analogues); format: cell-based, Enterococcus spp.; conditions: Enterococcus, VRE, 24 h, read-out: MIC (μg/ml) at 24 hours, VRE 1, VRE 1; 24 hours; duplicate lines per compound
Method in brief: (§1)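 Turbidity read visually and then at 600 nm defined the MIC (μg/ml), comparing drug-containing wells with a growth-control well lacking antimicrobial. Testing followed the CLSI broth microdilution method, in duplicate, using two strains per organism group.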

SMILES	MIC [µg/mL]
Cl.N=C(N/N=C/c1cc(O)c(O)c(O)c1)N/N=C/c1cc(O)c(O)c(O)c1 [NCL097, 2,2′-bis[(3,4,5-trihydroxyphenyl)methylene]carbonimidic Dihydrazide Hydrochloride]	32

same assay, conditions: Enterococcus, VRE, 24 h, read-out: MIC (μg/ml) at 24 hours, VRE 2, VRE 2; 24 hours; duplicate lines per compound

SMILES	MIC [µg/mL]
Cl.N=C(N/N=C/c1cc(O)c(O)c(O)c1)N/N=C/c1cc(O)c(O)c(O)c1 [NCL097, 2,2′-bis[(3,4,5-trihydroxyphenyl)methylene]carbonimidic Dihydrazide Hydrochloride]	32

same assay, conditions: MIC testing, two VRE strains

SMILES	activity against VRE among analogues
Cl.N=C(N)N/N=C/c1ccc(Cl)cc1 [NCL030]	greatest activity
Cl.N=C(N)N/N=C/c1ccc(C(F)(F)F)cc1 [NCL041]	greatest activity
Cl.N=C(N)N/N=C/c1cccc(C(F)(F)F)c1 [NCL043]	greatest activity
Cc1ccc(/C=N/NC(=N)N)cc1.Cl [NCL044]	greatest activity
Cl.N=C(N)N/N=C/c1cccc(Cl)c1 [NCL052]	greatest activity
Cl.N=C(N/N=C/c1cc(O)c(O)c(O)c1)N/N=C/c1cc(O)c(O)c(O)c1 [NCL097, 2,2′-bis[(3,4,5-trihydroxyphenyl)methylene]carbonimidic Dihydrazide Hydrochloride]	greatest activity

same assay, conditions: isolate VRE 1; 24 hours; 1st and 2nd replicate rows

SMILES	MIC (μg/ml) at 24 hours, VRE 1 [µg/mL]
Cl.N=C(N)N/N=C/c1ccc(Cl)cc1 [NCL030]	64
Cl.N=C(N)N/N=C/c1ccc(C(F)(F)F)cc1 [NCL041]	64
Cl.N=C(N)N/N=C/c1cccc(C(F)(F)F)c1 [NCL043]	128
Cc1ccc(/C=N/NC(=N)N)cc1.Cl [NCL044]	128
Cl.N=C(N)N/N=C/c1cccc(Cl)c1 [NCL052]	128
Cl.N=C(N)NN=Cc1ccc(F)cc1 [NCL053]	>128

same assay, conditions: isolate VRE 2; 24 hours; 1st and 2nd replicate rows

SMILES	MIC (μg/ml) at 24 hours, VRE 2
Cl.N=C(N)N/N=C/c1ccc(Cl)cc1 [NCL030]	64 µg/mL
Cl.N=C(N)N/N=C/c1ccc(C(F)(F)F)cc1 [NCL041]	64 µg/mL
Cl.N=C(N)N/N=C/c1cccc(C(F)(F)F)c1 [NCL043]	128 µg/mL and 64 µg/mL
Cc1ccc(/C=N/NC(=N)N)cc1.Cl [NCL044]	128 µg/mL
Cl.N=C(N)N/N=C/c1cccc(Cl)c1 [NCL052]	128 µg/mL
Cl.N=C(N)NN=Cc1ccc(F)cc1 [NCL053]	>128 µg/mL

tested on: Escherichia coli; test: as above; format: cell-based; conditions: 24 hours; 1st and 2nd replicate rows

SMILES	MIC (μg/ml) at 24 hours, E. coli
Cl.N=C(N)N/N=C/c1ccc(Cl)cc1 [NCL030]	>128 µg/mL
Cl.N=C(N)N/N=C/c1ccc(C(F)(F)F)cc1 [NCL041]	128 µg/mL and 64 µg/mL
Cl.N=C(N)N/N=C/c1cccc(C(F)(F)F)c1 [NCL043]	128 µg/mL
Cc1ccc(/C=N/NC(=N)N)cc1.Cl [NCL044]	>128 µg/mL
Cl.N=C(N)N/N=C/c1cccc(Cl)c1 [NCL052]	>128 µg/mL
Cl.N=C(N)NN=Cc1ccc(F)cc1 [NCL053]	>128 µg/mL

same assay, conditions: E. coli ATCC25922, 24 hours

SMILES	MIC (μg/ml) at 24 hours E. coli ATCC25922 [µg/mL]
CC(Nc1cc(Cl)nc(N)n1)c1ccccc1 (stereo not shown) [NCL 182]	>64
CC(Nc1cc(NC(C)c2ccccc2)ncn1)c1ccccc1 (stereo not shown) [NCL 183]	>64

same assay, conditions: Escherichia coli, read-out: MIC (μg/ml) at 24 hours; E. coli; 24 hours; duplicate lines per compound

SMILES	MIC [µg/mL]
Cl.N=C(N/N=C/c1cc(O)c(O)c(O)c1)N/N=C/c1cc(O)c(O)c(O)c1 [NCL097, 2,2′-bis[(3,4,5-trihydroxyphenyl)methylene]carbonimidic Dihydrazide Hydrochloride]	> 128

tested on: Pseudomonas aeruginosa; test: as above; format: cell-based; conditions: 24 hours; 1st and 2nd replicate rows

SMILES	MIC (μg/ml) at 24 hours, P. aeruginosa [µg/mL]
Cl.N=C(N)N/N=C/c1ccc(Cl)cc1 [NCL030]	128
Cl.N=C(N)N/N=C/c1ccc(C(F)(F)F)cc1 [NCL041]	128
Cl.N=C(N)N/N=C/c1cccc(C(F)(F)F)c1 [NCL043]	128
Cc1ccc(/C=N/NC(=N)N)cc1.Cl [NCL044]	128
Cl.N=C(N)N/N=C/c1cccc(Cl)c1 [NCL052]	128
Cl.N=C(N)NN=Cc1ccc(F)cc1 [NCL053]	128

same assay, conditions: P. aeruginosa; 24 hours; duplicate lines per compound; Hydrochloride

SMILES	MIC (μg/ml) at 24 hours, P. aeruginosa [µg/mL]
Cl.N=C(N/N=C/c1cc(O)c(O)c(O)c1)N/N=C/c1cc(O)c(O)c(O)c1 [NCL097, 2,2′-bis[(3,4,5-trihydroxyphenyl)methylene]carbonimidic Dihydrazide Hydrochloride]	>128

same assay, conditions: Pseudomonas #008, 24 hours

SMILES	MIC (μg/ml) at 24 hours Pseudomonas #008 [µg/mL]
CC(Nc1cc(Cl)nc(N)n1)c1ccccc1 (stereo not shown) [NCL 182]	>64
CC(Nc1cc(NC(C)c2ccccc2)ncn1)c1ccccc1 (stereo not shown) [NCL 183]	>64

same assay, conditions: Pseudomonas aeruginosa, 24 h, read-out: MIC (μg/ml) at 24 hours, P. aeruginosa; 24 hours; duplicate lines per compound

SMILES	MIC [µg/mL]
Cl.N=C(N/N=C/c1cc(O)c(O)c(O)c1)N/N=C/c1cc(O)c(O)c(O)c1 [NCL097, 2,2′-bis[(3,4,5-trihydroxyphenyl)methylene]carbonimidic Dihydrazide Hydrochloride]	128

tested on: E. faecalis #32; test: Broth microdilution MIC, Example 7 (NCL analogues), Table 42; format: cell-based, Enterococcus faecalis; conditions: E. faecalis #32, 24 hours

SMILES	MIC (μg/ml) at 24 hours E. faecalis #32 [µg/mL]
CC(Nc1cc(Cl)nc(N)n1)c1ccccc1 (stereo not shown) [NCL 182]	>64
CC(Nc1cc(NC(C)c2ccccc2)ncn1)c1ccccc1 (stereo not shown) [NCL 183]	>64

tested on: MRSA; test: Broth microdilution MIC, Example 7 (NCL812 and analogues); format: cell-based, Staphylococcus aureus; conditions: MIC testing, two MRSA strains
Method in brief: as §1

SMILES	activity against MRSA among analogues
Cl.N=C(N)N/N=C/c1ccc(Cl)cc1 [NCL030]	greatest activity
Cl.N=C(N)N/N=C/c1ccc(C(F)(F)F)cc1 [NCL041]	greatest activity
Cl.N=C(N)N/N=C/c1cccc(C(F)(F)F)c1 [NCL043]	greatest activity
Cc1ccc(/C=N/NC(=N)N)cc1.Cl [NCL044]	greatest activity
Cl.N=C(N)N/N=C/c1cccc(Cl)c1 [NCL052]	greatest activity
Cl.N=C(N/N=C/c1cc(O)c(O)c(O)c1)N/N=C/c1cc(O)c(O)c(O)c1 [NCL097, 2,2′-bis[(3,4,5-trihydroxyphenyl)methylene]carbonimidic Dihydrazide Hydrochloride]	greatest activity

same assay, conditions: Staphylococcus aureus, MRSA, 24 h, read-out: MIC (μg/ml) at 24 hours, MRSA 1, MRSA 1; 24 hours; duplicate lines per compound

SMILES	MIC [µg/mL]
Cl.N=C(N/N=C/c1cc(O)c(O)c(O)c1)N/N=C/c1cc(O)c(O)c(O)c1 [NCL097, 2,2′-bis[(3,4,5-trihydroxyphenyl)methylene]carbonimidic Dihydrazide Hydrochloride]	128

same assay, conditions: Staphylococcus aureus, MRSA, 24 h, read-out: MIC (μg/ml) at 24 hours, MRSA 2, MRSA 2; 24 hours; duplicate lines per compound

SMILES	MIC [µg/mL]
Cl.N=C(N/N=C/c1cc(O)c(O)c(O)c1)N/N=C/c1cc(O)c(O)c(O)c1 [NCL097, 2,2′-bis[(3,4,5-trihydroxyphenyl)methylene]carbonimidic Dihydrazide Hydrochloride]	32

same assay, conditions: isolate MRSA 1; 24 hours; 1st and 2nd replicate rows

SMILES	MIC (μg/ml) at 24 hours, MRSA 1 [µg/mL]
Cl.N=C(N)N/N=C/c1ccc(Cl)cc1 [NCL030]	128
Cl.N=C(N)N/N=C/c1ccc(C(F)(F)F)cc1 [NCL041]	64
Cl.N=C(N)N/N=C/c1cccc(C(F)(F)F)c1 [NCL043]	128
Cc1ccc(/C=N/NC(=N)N)cc1.Cl [NCL044]	128
Cl.N=C(N)N/N=C/c1cccc(Cl)c1 [NCL052]	128
Cl.N=C(N)NN=Cc1ccc(F)cc1 [NCL053]	>128

same assay, conditions: isolate MRSA 2; 24 hours; 1st and 2nd replicate rows

SMILES	MIC (μg/ml) at 24 hours, MRSA 2 [µg/mL]
Cl.N=C(N)N/N=C/c1ccc(Cl)cc1 [NCL030]	128
Cl.N=C(N)N/N=C/c1ccc(C(F)(F)F)cc1 [NCL041]	64
Cl.N=C(N)N/N=C/c1cccc(C(F)(F)F)c1 [NCL043]	128
Cc1ccc(/C=N/NC(=N)N)cc1.Cl [NCL044]	128
Cl.N=C(N)N/N=C/c1cccc(Cl)c1 [NCL052]	128
Cl.N=C(N)NN=Cc1ccc(F)cc1 [NCL053]	>128
